Drawing on PMC5187916, “Discovery of a New Class of Cathepsin K Inhibitors in Rhizoma Drynariae as Potential Candidates for the Treatment of Osteoporosis” (International Journal of Molecular Sciences, 2016), this text covers IC50 for three compounds.

Experiment [1] has as its target T1, Cathepsin K (Homo sapiens, UniProt P43235).
T1 construct: gene CTSK
T1 sequence (P43235 115-329): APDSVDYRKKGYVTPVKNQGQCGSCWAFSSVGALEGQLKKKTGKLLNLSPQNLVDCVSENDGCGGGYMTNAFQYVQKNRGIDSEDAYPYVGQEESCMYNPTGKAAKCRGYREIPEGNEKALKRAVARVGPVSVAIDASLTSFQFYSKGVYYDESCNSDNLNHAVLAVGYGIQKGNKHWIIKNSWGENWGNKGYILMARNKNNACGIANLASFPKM
Put plainly: fluorescence enzyme assay with recombinant human Ctsk, LR-AFC substrate. The class given is biochemical.

Experiment [2] addresses T1, Cathepsin K. Briefly: fluorescence enzyme assay with recombinant human Ctsk, LR-AFC substrate (kit positive control). In kind it is biochemical.

pIC50: −log10 of the molar value.

For orientation: pIC50 means −log10 of the IC50, conventionally taken in molar units. Regarding `C=C(C)C(CC=C(C)C)Cc1c(O)cc2c(c1O)C(=O)CC(c1ccc(O)cc1O)O2` (stereo not drawn) [KF, Kushennol F], at Cathepsin K [1], the negative-log IC50 (pIC50) is 5.06. On the same count and under the same terms, to `C=C(C)[C@H](CC=C(C)C)Cc1c(O)cc(O)c2c1O[C@H](c1ccc(O)cc1O)CC2=O` [SG, Sophoraflavanone G] belongs 4.57. As to FF-FMK, on Cathepsin K [2], the pIC50 was 7.33.
